# From patent publication EP4670722A1, “PROPHYLACTIC OR AMELIORATING AGENT FOR CELL AGING” (Kyowa Pharma Chemical Co., Ltd., priority 2023, dated 2024)
# How the values were obtained:
# [1] = test system: Human normal dermal fibroblasts (NB1RGB) with a PDL of 30 or less; assay: Cell viability (Cell Counting Kit-8) of tunicamycin-treated dermal fibroblasts; assay type: cell-based; conditions: NB1RGB PDL of 30 or less, tunicamycin 0.3 µg/mL, 50 µg/mL to 200 µg/mL, 24 hours; effect increased as content increased; Fig. 6
# Method: Human normal dermal fibroblasts (NB1RGB) with a PDL of 30 or less were cultured using DMEM containing 10% FBS. The cultured cells were collected by trypsin treatment. The collected cells were seeded in a 96-well plate, and when they reached 100% confluence, tunicamycin was added at 0.3 µg/mL, and the cells were cultured for 24 hours. A group was also prepared in which FBS-free DMEM medium containing a test sample (2'-fucosyllactose) at 50 µg/mL, 100 µg/mL, or 200 µg/mL was added simultaneously with tunicamycin, and cultured for 24 hours. After completion of culture, the viability of human normal dermal fibroblasts was evaluated using Cell Counting Kit-8 (manufactured by Dojindo Laboratories). The measurement wavelength (As) was set to 450 nm, and the reference wavelength was set to 620 nm.
# Human normal dermal fibroblasts with a PDL of 30 or less were cultured and the absorbance at a measurement wavelength of 450 nm was measured in the same manner as in Example 5-1, except that tunicamycin and the test sample were not added. The obtained absorbance was designated as Ab, and the cell viability represented by the above formula (1) was determined.
# IL-1α = IL-1α expression analysis (ELISA) under H2O2; assay type: cell-based, Human; conditions: HaCaT, 20 µM H2O2, 50 µg/mL to 200 µg/mL, 24 hours; suppression increased as content increased; Fig. 10
# Method: Human normal epidermal keratinocytes (HaCaT) were cultured in DMEM containing 10% FBS. The cultured cells were collected by trypsin treatment. The collected cells were seeded in a 48-well plate at a cell density of 6 x 10^4 cells/well and cultured for 24 hours in a 37°C, 5% CO2 incubator. After culturing, the cells were precultured for 2 hours in FBS-free DMEM containing the test sample (2'-FL and sucrose) at 50 µg/mL, 100 µg/mL, or 200 µg/mL, or in FBS-free DMEM not containing the test sample. Thereafter, the medium was replaced with FBS-free DMEM containing the test sample at 50 µg/mL, 100 µg/mL, or 200 µg/mL and 20 µM H2O2, or with FBS-free DMEM not containing the test sample but containing 20 µM H2O2, respectively, and after culturing for an additional 24 hours in a 37°C, 5% CO2 incubator, the culture supernatant was collected. The culture supernatant was centrifuged, and the resulting supernatant was used as a sample. […]
# Since most IL-1α is released extracellularly, the IL-1α expression level was evaluated by measuring IL-1α in the supernatant medium by ELISA (AuthentiKine™ IL-1 alpha ELISA Kit, manufactured by Proteintech). […] The relative value of the IL-1α amount when each test sample was added was calculated, with the IL-1α amount in the control set to 1.
# GLS1 = GLS1 expression analysis (Western blot) in dermal fibroblasts cultured with medium of hydrogen peroxide-treated cells; assay type: cell-based, Human; conditions: dermal fibroblasts NB1RGB, 50 µg/mL to 200 µg/mL, 24 hours, protein level vs β-actin; effect increased as content increased; Fig. 4
# Method: Human normal dermal fibroblasts (NB1RGB, PDL of 30 or less) were cultured using DMEM containing 10% FBS. The cultured cells were collected by trypsin treatment. The collected cell-containing liquid was diluted with DMEM containing 10% FBS to a cell concentration of 5.0 x 10^5 cells, seeded in a 10 cm dish, and cultured until 60% confluent. Thereafter, the cultured cells were subjected to a treatment of exposure to a medium containing 50 µM hydrogen peroxide (FBS-free) for 2 hours once a day for 3 days. Then, the medium was replaced with DMEM containing 5% FBS, and after 2 days, the medium (medium A) was collected. Dermal fibroblasts not exposed to hydrogen peroxide were diluted with DMEM containing 10% FBS to a concentration of 5.0 x 10^5 cells, seeded in a 10 cm dish, and cultured for 24 hours. […]
# The dermal fibroblasts prepared in [Example 3-1] were diluted with DMEM medium containing 10% FBS to a concentration of 8.0 x 10^4 cells, seeded in a 6-well plate, and cultured until 80% confluent. […] The extracted proteins were quantified by the Bradford assay.
# Except that no test sample was added, skin fibroblasts prepared in [Example 3-1] and skin fibroblasts cultured using DMEM containing 10% FBS were cultured in the same manner as in [Example 3-2], and proteins were extracted. The extracted proteins were quantified by the Bradford assay. […]
smiles,measurement,setting,value
"C[C@@H]1O[C@@H](O[C@H]2[C@H](O[C@H]3[C@H](O)[C@@H](O)C(O)O[C@@H]3CO)O[C@H](CO)[C@H](O)[C@@H]2O)[C@@H](O)[C@H](O)[C@@H]1O (stereo partly drawn) [2'-FL, 2'-fucosyllactose]",endoplasmic reticulum stress (cell viability),[1],ameliorated endoplasmic reticulum stress
same,H2O2-induced promotion of IL-1α expression,IL-1α,suppressed the H2O2-induced promotion of IL-1 α expression
same,expression of GLS1,GLS1,suppressed the expression of GLS1
